This passage reports IC50 results from US20260042764A1, “COMPOSITIONS AND METHODS FOR INHIBITION OF KRAS” (TheRas, Inc., priority 2022, published 2026).

Assay [1] deals with T1, Avi-KRAS G12D (1-169) GppNHp/RAF1 RBD-3xFLAG (52-151) (Homo sapiens, UniProt P01116, G12D).
T1 construct: Avi-KRAS G12D (1-169)
Kind of assay: Raf1-KRAS G12D-GppNHP disruption HTRF assay (Biological Example 1). The format is binding. To be noted: KRAS G12D, GppNHp-loaded; Table 11. In short, it runs like this:
(§1)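 Protein mix, 1 h RT, 700 rpm; reagent mix, 1 h RT, 700 rpm; HTRF read. Buffer Tris pH 7.5/NaCl/MgCl2/BSA/Tween, 10% DMSO. Output % activity, DMSO = 100%.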
For orientation: In TR-FRET formats the signal depends on donor and acceptor labels being close together.

Assay [2] addresses T2, Avi-KRAS G12R (1-169) GppNHp/RAF1 RBD-3xFLAG (52-151) (Homo sapiens, UniProt P01116, G12R).
T2 construct: Avi-KRAS G12R (1-169)
Kind of assay: Raf1-KRAS G12R-GppNHP disruption HTRF assay (Biological Example 1). The format is binding. Conditions: KRAS G12R, GppNHp-loaded; Table 11. Put shortly: as §1

The target of assay [3] is T3, Avi-KRAS G12V (1-169) GppNHp/RAF1 RBD-3xFLAG (52-151) (Homo sapiens, UniProt P01116, G12V).
T3 construct: Avi-KRAS G12V (1-169)
Kind of assay: Raf1-KRAS G12V-GppNHP disruption HTRF assay (Biological Example 1). The format is binding. Conditions: KRAS G12V, GppNHp-loaded; Table 11. In short, it runs like this: as §1

For assay [4], the target named is T4, Avi-KRAS WT (1-169) GppNHp/RAF1 RBD-3xFLAG (52-151) (Homo sapiens, UniProt P01116).
T4 construct: Avi-KRAS WT (1-169)
Kind of assay: Raf1-KRAS WT-GppNHP disruption HTRF assay (Biological Example 1). The format is binding. Conditions: KRAS WT, GppNHp-loaded; Table 11. Put shortly: as §1

Assay [5] deals with GP2d cells (KRAS G12D). Kind of assay: Cell-based pERK HTRF assay in GP2d cell (Biological Example 2). To be noted: GP2d, GP2d (KRAS G12D) cells, pERK HTRF. In short, it runs like this:
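GP2d (KRAS G12D) cells were plated in DMEM/10% FBS and treated the next day for 60 min with compounds. Dosing used 9-point half-log series starting at 1 μM or 100 nM in 0.25% DMSO. Lysates were read by HTRF pERK (d2/Eu cryptate antibodies) after 4–24 h at room temperature, with excitation at 320 nm and emission at 615 nm.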

pIC50: −log10 of the molar value. Where only a bound is given, the exact number is not on record here.

T3 sequence (P01116 1-169 isoform P01116-2 G12V): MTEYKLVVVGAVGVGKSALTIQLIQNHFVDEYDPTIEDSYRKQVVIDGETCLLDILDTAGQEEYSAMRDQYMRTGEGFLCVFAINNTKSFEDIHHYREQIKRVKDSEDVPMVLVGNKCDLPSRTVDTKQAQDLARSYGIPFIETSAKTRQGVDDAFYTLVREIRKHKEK
T4 sequence (P01116 1-169 isoform P01116-2): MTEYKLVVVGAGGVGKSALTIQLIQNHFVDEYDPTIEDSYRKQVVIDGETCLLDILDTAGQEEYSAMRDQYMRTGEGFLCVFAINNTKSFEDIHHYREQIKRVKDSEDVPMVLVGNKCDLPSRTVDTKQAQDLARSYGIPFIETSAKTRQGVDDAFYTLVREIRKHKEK
T1 sequence (P01116 1-169 isoform P01116-2 G12D): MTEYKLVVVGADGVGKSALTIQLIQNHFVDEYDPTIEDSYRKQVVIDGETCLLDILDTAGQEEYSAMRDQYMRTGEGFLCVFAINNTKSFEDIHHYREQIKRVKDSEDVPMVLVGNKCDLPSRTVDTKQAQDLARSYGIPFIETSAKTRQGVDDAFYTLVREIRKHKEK
T2 sequence (P01116 1-169 isoform P01116-2 G12R): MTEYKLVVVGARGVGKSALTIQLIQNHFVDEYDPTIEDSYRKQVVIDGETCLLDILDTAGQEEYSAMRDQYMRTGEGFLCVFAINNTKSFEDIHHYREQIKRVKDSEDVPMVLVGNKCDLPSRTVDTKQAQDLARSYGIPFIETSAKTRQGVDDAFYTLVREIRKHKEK

As for `CN(CCO)c1nc(OC[C@@]23CCCN2C[C@H](F)C3)nc2c(F)c(-c3ccc(F)c4sc(N)nc34)c(C(F)(F)F)cc12` [Compound 82], the pIC50 in assay [1] is 6.00 to 7.00; in assay [2], 5.00 to 6.00; in assay [3] it was 5.00 to 6.00; in assay [4], 5.00 to 6.00; in assay [5] it was 6.00 to 7.00.
As for `CO[C@H]1C[C@@H](N(C)c2nc(OC[C@@]34CCCN3C[C@H](F)C4)nc3c(F)c(-c4ccc(F)c5sc(N)c(C#N)c45)c(C(F)(F)F)cc23)C1` [Compound 27], the pIC50 is 6.00 to 7.00 in assay [1]; 6.00 to 7.00 in assay [2]; 5.00 to 6.00 in assay [3]; 6.00 to 7.00 in assay [4]; over 7.00 in assay [5].
On to `CN(c1nc(OC[C@@]23CCCN2C[C@H](F)C3)nc2c(F)c(-c3ccc(F)c4sc(N)c(C#N)c34)c(C(F)(F)F)cc12)[C@@H]1C[C@H](O)[C@H]1CO` [Compound 181], for which the negative-log IC50 (pIC50) was over 7.00 in assay [1]; 6.00 to 7.00 in assay [2]; 6.00 to 7.00 in assay [3]; over 7.00 in assay [4]; over 7.00 in assay [5].
As for `CN(C[C@H](O)CO)c1nc(OC[C@@]23CCCN2C[C@H](F)C3)nc2c(F)c(-c3ccc(F)c4sc(N)c(C#N)c34)c(C(F)(F)F)cc12` [Compound 79], the pIC50 in assay [1] is over 7.00; in assay [2], 6.00 to 7.00; in assay [3] it was 6.00 to 7.00; in assay [4], 6.00 to 7.00; in assay [5], over 7.00.
As for `CCN(c1nc(OC[C@@]23CCCN2C[C@H](F)C3)nc2c(F)c(-c3ccc(F)c4sc(N)c(C#N)c34)c(C(F)(F)F)cc12)[C@@H]1CCN(C(C)=O)[C@@H]1COC` [Compound 118], the negative logarithm of the IC50 (pIC50) in assay [1] was 6.00 to 7.00; in assay [2] it was 6.00 to 7.00; in assay [3], 6.00 to 7.00; in assay [4] it was 6.00 to 7.00; in assay [5], over 7.00.
Regarding `CN(c1nc(OCC23CCCN2CCC3)nc2c(F)c(-c3ccc(F)c4sc(N)c(C#N)c34)c(C(F)(F)F)cc12)[C@H]1C[C@@H](O)C1` [Compound 25], the pIC50 in assay [1], in assay [2], in assay [3], in assay [4] and in assay [5] was over 7.00 in each case.
In the case of `CCN(CCO)c1nc(OC[C@@H]2CC3(CC3)CN2C)nc2c(F)c(-c3ccc(F)c4sc(N)c(C#N)c34)c(C(F)(F)F)cc12` [Compound 180], the negative-log IC50 (pIC50) is 6.00 to 7.00 in assay [1]; 6.00 to 7.00 in assay [2]; 6.00 to 7.00 in assay [3]; 6.00 to 7.00 in assay [4]; over 7.00 in assay [5].
Take `CN(c1nc(OC[C@@]23CCCN2C[C@H](F)C3)nc2c(F)c(-c3ccc(F)c4sc(N)c(C#N)c34)c(Cl)cc12)[C@H]1C[C@@H](O)C1` [Compound 24]: the pIC50 in assay [1] was 6.00 to 7.00; in assay [2], 6.00 to 7.00; in assay [3], 6.00 to 7.00; in assay [4] it was 6.00 to 7.00; in assay [5], over 7.00.
For `CN(c1nc(OC[C@@]23CCCN2C[C@H](F)C3)nc2c(F)c(-c3ccc(F)c4scc(C#N)c34)c(C(F)(F)F)cc12)[C@@H]1CCN(C(=O)CO)C1` [Compound 107], the negative-log IC50 (pIC50) in assay [1] was under 5.00; in assay [2], under 5.00; in assay [3], under 5.00; in assay [4], under 5.00; in assay [5] it was under 6.00.
On to `N#Cc1c(N)sc2c(F)ccc(-c3c(C(F)(F)F)cc4c(N5C6CCC5COC6)nc(OC[C@@]56CCCN5C[C@H](F)C6)nc4c3F)c12` [Compound 131], for which the pIC50 in assay [1] is 6.00 to 7.00; in assay [2], 6.00 to 7.00; in assay [3] it was 6.00 to 7.00; in assay [4], 6.00 to 7.00; in assay [5] it was over 7.00.
Regarding `N#Cc1c(N)sc2c(F)ccc(-c3c(C(F)(F)F)cc4c(N(CCO)C5CC5)nc(OC[C@@]56CCCN5C[C@H](F)C6)nc4c3F)c12` [Compound 171], the pIC50 in assay [1] was 6.00 to 7.00; in assay [2], 6.00 to 7.00; in assay [3], 6.00 to 7.00; in assay [4] it was 6.00 to 7.00; in assay [5], over 7.00.
Turning to `N#Cc1c(N)sc2c(F)ccc(-c3c(C(F)(F)F)cc4c(N5CC[C@H](O)C5)nc(OC[C@@]56CCCN5C[C@H](F)C6)nc4c3F)c12` [Compound 125], the pIC50 was 6.00 to 7.00 in assay [1]; 6.00 to 7.00 in assay [2]; 6.00 to 7.00 in assay [3]; 6.00 to 7.00 in assay [4]; over 7.00 in assay [5].
For `C[C@H]1COCCN1c1nc(OC[C@@]23CCCN2C[C@H](F)C3)nc2c(F)c(-c3ccc(F)c4sc(N)c(C#N)c34)c(C(F)(F)F)cc12` [Compound 135], the negative logarithm of the IC50 (pIC50) in assay [1] was over 7.00; in assay [2], 6.00 to 7.00; in assay [3], 6.00 to 7.00; in assay [4] it was 6.00 to 7.00; in assay [5], over 7.00.
Regarding `CCN(CCO)c1nc(OC[C@@]23CCCN2C[C@H](F)C3)nc2c(F)c(-c3ccc(F)c4sc(N)c(C#N)c34)c(C(F)(F)F)cc12` [Compound 74], the negative-log IC50 (pIC50) in assay [1], in assay [2], in assay [3], in assay [4] and in assay [5] was over 7.00 each time.
For `CN(c1nc(OC[C@@]23CCCN2C[C@H](F)C3)nc2c(F)c(-c3ccc(F)c4sc(N)c(C#N)c34)c(C(F)(F)F)cc12)C1(CO)CC1` [Compound 170], the pIC50 in assay [1] is 6.00 to 7.00; in assay [2] it was 6.00 to 7.00; in assay [3], 6.00 to 7.00; in assay [4], 6.00 to 7.00; in assay [5], over 7.00.
For the compound `N#Cc1c(N)sc2c(F)ccc(-c3c(C(F)(F)F)cc4c(N5CC6CCC(C5)C6CO)nc(OC[C@@]56CCCN5C[C@H](F)C6)nc4c3F)c12` (stereo partly shown) [Compound 47], the negative logarithm of the IC50 (pIC50) in assay [1] was over 7.00; in assay [2] it was 6.00 to 7.00; in assay [3] it was 6.00 to 7.00; in assay [4], 6.00 to 7.00; in assay [5] it was over 7.00.
For `CN(c1nc(OC[C@@]23CCCN2C[C@H](F)C3)nc2c(F)c(-c3ccc(F)c4sc(N)c(C#N)c34)c(C(F)(F)F)cc12)[C@H]1CCOC1` [Compound 133], the negative logarithm of the IC50 (pIC50) in assay [1] is 6.00 to 7.00; in assay [2], 6.00 to 7.00; in assay [3], 6.00 to 7.00; in assay [4], 6.00 to 7.00; in assay [5], over 7.00.
Turning to `N#Cc1c(N)sc2c(F)ccc(-c3c(C(F)(F)F)cc4c(N5CC(CO)C5)nc(OC[C@@]56CCCN5C[C@H](F)C6)nc4c3F)c12` [Compound 129], the pIC50 was 6.00 to 7.00 in assay [1]; 6.00 to 7.00 in assay [2]; 6.00 to 7.00 in assay [3]; 6.00 to 7.00 in assay [4]; over 7.00 in assay [5].
As to `N#Cc1c(N)sc2c(F)ccc(-c3c(C(F)(F)F)cc4c(N5CCC(O)CC5)nc(OC[C@@]56CCCN5C[C@H](F)C6)nc4c3F)c12` [Compound 127], the negative-log IC50 (pIC50) in assay [1] is 6.00 to 7.00; in assay [2], 6.00 to 7.00; in assay [3], 6.00 to 7.00; in assay [4] it was 6.00 to 7.00; in assay [5], over 7.00.
Consider `C[C@@H]1COCCN1c1nc(OC[C@@]23CCCN2C[C@H](F)C3)nc2c(F)c(-c3ccc(F)c4sc(N)c(C#N)c34)c(C(F)(F)F)cc12` [Compound 134], for which the pIC50 in assay [1] is 6.00 to 7.00; in assay [2] it was 6.00 to 7.00; in assay [3], 5.00 to 6.00; in assay [4] it was 6.00 to 7.00; in assay [5], over 7.00.
As to `CC(=O)N1CCN(c2nc(OC[C@@]34CCCN3C[C@H](F)C4)nc3c(F)c(-c4ccc(F)c5sc(N)c(C#N)c45)c(C(F)(F)F)cc23)CC1` [Compound 100], the pIC50 in assay [1] is 6.00 to 7.00; in assay [2], 6.00 to 7.00; in assay [3] it was 5.00 to 6.00; in assay [4] it was 6.00 to 7.00; in assay [5], over 7.00.
Take `C[C@@H]1CN(c2nc(OC[C@@]34CCCN3C[C@H](F)C4)nc3c(F)c(-c4ccc(F)c5sc(N)c(C#N)c45)c(C(F)(F)F)cc23)C[C@@H](C)O1` [Compound 144]: the pIC50 in assay [1] was 6.00 to 7.00; in assay [2], 6.00 to 7.00; in assay [3] it was 5.00 to 6.00; in assay [4], 6.00 to 7.00; in assay [5] it was over 7.00.
Consider `CN(c1nc(OC[C@@]23CCCN2C[C@H](F)C3)nc2c(F)c(-c3ccc(F)c4sc(N)c(C#N)c34)c(C(F)(F)F)cc12)[C@H]1C[C@@](C)(O)C1` [Compound 31, 2-amino-7-fluoro-4-(8-fluoro-2-(((2R,7aS)-2-fluorotetrahydro-1H-pyrrolizin-7a(5H)-yl)methoxy)-4-(((1s,3R)-3-hydroxy-3-methylcyclobutyl)(methyl)amino)-6-(trifluoromethyl)quinazolin-7-yl)benzo[b]thiophene-3-carbonitrile], for which the pIC50 was 6.00 to 7.00 in assay [1]; 6.00 to 7.00 in assay [2]; 5.00 to 6.00 in assay [3]; 6.00 to 7.00 in assay [4]; over 7.00 in assay [5].

A word on the pIC50: it is the negative decadic logarithm of the IC50, by convention in mol/L. A high value points to a small IC50.
